Among the data in article PMC12040169 (PLOS Biology, 2025) are viability values, retold here.

The data set is described as follows: in vitro. As to conditions: human, hela cells, % viability.

The term viability denotes a read-out of living cells in per cent, often relative to untreated cells. As for `CCc1ccc(NC(=O)CN(CCO)Cc2cc(Br)ccc2F)cc1` [CBK305968], the viability at 28.5 h, 10 µM worked out at 84.8%.
As to `O=C1CC[C@@H](NCc2ccncc2)[C@H](c2cc(F)cc(F)c2)N1` [CBK283131], the viability at 28.5 h, 10 µM was 92.9%.
Regarding `O=C1c2ccccc2NC(c2cccc(O)c2)N1O` (stereo not drawn) [CBK288426], the viability at 28.5 h, 10 µM was determined as 98.2%.
Consider `Cc1ccc(S(=O)(=O)NC[C@H]2O[C@@H](CC(=O)N3CCCC3)[C@H](O)[C@@H]2O)cc1` [CBK288910], for which the viability at 28.5 h, 10 µM came out at 112%.
With `CC1=C(C)CC(C(=O)Nc2ccc(C(=O)NCc3cccnc3)cc2)C(C(=O)O)C1` (stereo not drawn) [CBK286567] the figure was 78.8%; with `NC(=O)c1cccc(CNC2CCCN(c3cccnn3)C2)c1` (stereo not drawn) [CBK305115], 103%.
`CNC(=S)Nc1ncn(Cc2cccc(F)c2)n1` [CBK288368]: the viability at 28.5 h, 10 µM came to 106%.
With `COc1ccc(C(=O)n2nc(SC)nc2N)cc1` [CBK006853] the figure was 100%; with `CCC(C)c1ccc(NC(=O)CSc2nc3cccnc3[nH]2)cc1` (stereo not drawn) [CBK264349], 86.9%; with `O=C(Nc1ccc2c(c1)OCO2)N1CCN(c2ccc(F)cc2)CC1` [CBK270332], 86.3%.
On to `COC(=O)c1ccc(CN2CCCC2)cc1` [CBK029023], for which the viability at 28.5 h, 10 µM turned out to be 106%.
To `CC1CCCCN1C(=O)CCn1c(-c2cccnc2)cc2cccnc21` (stereo not drawn) [CBK282692] belongs 97.1%; to `O=C(O)/C=C/C(=O)Nc1ccc(S(=O)(=O)NCc2ccco2)cc1` [CBK264500], 106%; to `O=C(Nc1cc(N2CCCS2(=O)=O)ccc1Cl)c1cc[nH]n1` [CBK306249], 83.1%.
Regarding `CCCC(=O)N1CCC(c2nc3ccccc3cc2NC(C)=O)CC1` [CBK285258], the viability at 28.5 h, 10 µM stood at 78.4%.
For the molecule `O=C(Cn1c(-c2cccs2)cc2cccnc21)NCC1CC1` [CBK282553], the viability at 28.5 h, 10 µM is 106%.
To `Cc1noc(C)c1CN1CC2CCN(c3ccccc3)C2C1` (stereo not drawn) [CBK304847] belongs 99.7%; to `Cc1nc(C)c(-c2csc(Nc3ncccn3)n2)s1` [CBK263297B], 87.4%; to `Cn1c(SCc2cccc3ccccc23)nnc1-c1ccc(NC(=O)/C=C/c2ccccc2)cc1` [CBK265034], 114%.
As to `O=C(CCC(=O)c1ccccc1)Nc1cc2ccccc2c(N2CCNCC2)n1` [CBK028418T], the viability at 28.5 h, 10 µM came to 106%.
For `CC(C)NC(=O)N[C@H]1CCN2C(=O)N(c3cccc4nsnc34)C(=O)[C@@H]2C1` [CBK289539], the viability at 28.5 h, 10 µM worked out at 111%.
As to `Cc1[nH]c2ccccc2c1Cc1n[nH]c(=S)n1Cc1ccccc1` [CBK266985], the viability at 28.5 h, 10 µM is 99.5%.
With `CCCn1c(C)nnc1CN(CC1CCCO1)C1CCC(C)CC1` (stereo not drawn) [CBK304485] the figure was 92%.
With `COCCNc1nc(-c2cncc(OC)c2)cnc1N` [CBK063606] the figure was 103%; with `Clc1cncc(OCCc2c[nH]c3ccccc23)n1` [CBK176027], 65.2%; with `O=C(CN1CCOCC1)Nc1ccc(NC(=O)CN2CCOCC2)cc1` [CBK265045], 95.9%.
To `Cc1cc(Cl)c(OCCN2CCCCCC2)c(Br)c1` [CBK266049G] belongs 91.7%; to `COCc1cc(=O)n2ncc(-c3ccccc3)c2[nH]1` [CBK288168], 84.6%.
On to `CC(=O)Nc1cccc(/C(C)=N/NC(=O)c2ccc(CN3CCOCC3)cc2)c1` [CBK262746], for which the viability at 28.5 h, 10 µM worked out at 95.4%.
With `C[C@H](Nc1cncc(-c2cccc(N(C)C)c2)n1)c1ccccc1` [CBK065699] the figure was 96.8%; with `CC(C)c1nccn1CCCn1cncc1-c1cnn(C)c1` [CBK281812], 104%; with `CC(=O)N[C@H](CC(N)=O)C(=O)N1CCC2(C/C=C/C[C@@H]3COCC[C@@H]3NC(=O)[C@@H](CC(C)C)NC2=O)CC1` [CBK292207], 106%.
To `COc1cccc(CC(=O)N2C3CCC2CC(O)(c2ccco2)C3)c1` (stereo not drawn) [CBK284053] belongs 80.5%; to `COc1ncccc1-c1cccnc1-n1ccnc1` [CBK176872], 92.6%.
For `CCN(CC)CCN1C(=O)CCC2(c3ccccc3)CCC(=O)C=C12` (stereo not drawn) [CBK023010C], the viability at 28.5 h, 10 µM is 105%.
To `CC(C)c1nc(CCN(C)C(=O)NCc2cnc3cnccn23)no1` [CBK307666] belongs 108%; to `CC12CC(NC(=O)N1c1ccc(C(=O)O)cc1)c1ccccc1O2` (stereo not drawn) [CBK287226], 82.2%.
To `Cc1cc(C)c(C)c(OCC(=O)N(Cc2nc(-c3ccccc3)no2)C2CCCCC2)c1` [CBK268974] belongs 104%; to `CS(=O)(=O)Nc1ncc(-c2ccco2)cc1C(=O)NCc1ccc(F)cc1` [CBK076479], 112%; to `O=C(C1=C(O)C(=O)N(Cc2cccnc2)C1c1cccnc1)c1cccs1` (stereo not drawn) [CBK264547], 119%.
As for `COCCCN(Cc1ccccn1)Cc1c(F)cccc1F` [CBK282959], the viability at 28.5 h, 10 µM worked out at 93.5%.
With `CCOc1ccc(CNc2ccc(CNc3ncn[nH]3)cc2)cc1` [CBK267617] the figure was 91.7%.
Consider `O=C(O)c1ccc(COc2ccc3ccccc3c2/C=C2/NC(=O)N(c3ccccc3)C2=O)cc1` [CBK265124], for which the viability at 28.5 h, 10 µM stood at 101%.
To `Cn1c(-c2ccccc2)cnc1NC(=O)CC1CCN(C(=O)Cc2ccccc2)CC1` [CBK285966] belongs 96.9%; to `Cc1ccc(CN(CCN(C)C)Cc2c(C)nn(C(C)C)c2C)o1` [CBK283235], 100%.
With `Cn1nc(C2CCCN(C(=O)C3CC3)C2)c2cccnc21` (stereo not drawn) [CBK282654] the figure was 89.4%; with `O=C(c1ccc2[nH]c(=O)[nH]c2c1)N1CCC2(CCNC2)C1` (stereo not drawn) [CBK156747C], 101%.
On to `COC(=O)c1c(NC(=S)NCc2ccccn2)sc(C(=O)N(C)C)c1C` [CBK267055], for which the viability at 28.5 h, 10 µM came out at 98.8%.
Regarding `CN(C)/C=N/c1ncc2ncn(C3CC(O)C(CO)O3)c2n1` (stereo not drawn) [CBK201175], the viability at 28.5 h, 10 µM is 90.8%.
With `N#CCCN(C1CCCCC1)S(=O)(=O)c1ccc(-c2ccc([N+](=O)[O-])cc2)cc1` [CBK261382] the figure was 90.6%; with `COc1ccc(N2C(=O)CC(Nc3ccc(Cc4nc5ccccc5[nH]4)cc3)C2=O)cc1` (stereo not drawn) [CBK266480], 96.9%.
`c1cnc2c(-c3cn4ccnc4c(NC4CC4)n3)cccc2c1` [CBK037911]: the viability at 28.5 h, 10 µM amounted to 111%.
With `Cc1ccc2nsnc2c1NC(=O)CN1CCCCC1` [CBK269330] the figure was 110%.
With `CC(=O)Cc1c(C(=O)O)c(C)nn1-c1ccccc1` [CBK286779] the figure was 104%; with `c1ccc(Oc2cccc(OCCCN3CCCCC3)c2)cc1` [CBK261781], 95.2%.
Regarding `O=c1[nH]cnc2c1cnn2Cc1ccccc1Cl` [CBK287999], the viability at 28.5 h, 10 µM worked out at 97.1%.
Regarding `CCc1nnc(NC(=O)COC(=O)CSc2nc(C)cc(C)n2)s1` [CBK018792], the viability at 28.5 h, 10 µM amounted to 90.9%.
With `CC(=O)NCCC(CN1CCOCC1)([N+](=O)[O-])[N+](=O)[O-]` [CBK261338] the figure was 88.7%; with `Cc1cn(C(C)C(=O)N(C)C)nc1C1CCCCC1` (stereo not drawn) [CBK016092], 113%; with `O=C(Nc1nnc(Cc2cccs2)o1)c1ccccc1` [CBK287831], 83.9%.
Regarding `COc1ccc(-c2cc(C(=O)NCC(=O)O)c(C)o2)cc1OC` [CBK287130], the viability at 28.5 h, 10 µM was determined as 86.7%.
For the molecule `COc1ccc(C(=O)NC(NCc2ccco2)C(Cl)(Cl)Cl)cc1` (stereo not drawn) [CBK262279], the viability at 28.5 h, 10 µM turned out to be 119%.
On to `O=C(NCCNc1cnccn1)c1ccc(Br)cc1F` [CBK305639], for which the viability at 28.5 h, 10 µM was 89.5%.
For the molecule `CCN(CC)CCN1CCN(c2cncc(-c3cccs3)n2)CC1` [CBK065703], the viability at 28.5 h, 10 µM turned out to be 95.5%.
To `CC(C)(C)NC(=O)c1nn2c(c1Br)NC(c1cccs1)CC2C(F)(F)F` (stereo not drawn) [CBK307175] belongs 84.9%.
For the molecule `N#CC1CCCc2c1[nH]c1ccc(Cl)cc21` (stereo not drawn) [CBK101438], the viability at 28.5 h, 10 µM turned out to be 63.9%.
With `CCn1nc(C)c(-c2cncn2CCCOc2cccc(C)c2)c1C` [CBK281997] the figure was 98.2%; with `Cc1cc2occ(CC(=O)NC3CCCN(C)C3)c2cc1C` (stereo not drawn) [CBK282611], 93.1%; with `N#CC1=C(N)n2c(s/c(=C\c3ccncc3)c2=O)=C(C#N)C1c1ccncc1` (stereo not drawn) [CBK262563], 96%.
With `COc1ccc2c(c1)c(C(=O)N1CCn3nc(CO)cc3C1)c(C)n2C` [CBK306764], the viability at 28.5 h, 10 µM was determined as 88.5%.
On to `O=C(NCCc1ccc(Cl)cc1)C1(Cc2ccc(-c3cccnc3)cc2)CCOCC1` [CBK285589], for which the viability at 28.5 h, 10 µM was 94.6%.
With `O=S(=O)(c1ccccc1)c1cncc(N2CCNCC2)n1` [CBK051078C] the figure was 89.3%; with `Cc1sc(NC(=S)NC(=O)COc2ccc(Br)cc2Cl)c(C(N)=O)c1C` [CBK266127], 111%; with `Cn1c(Cc2ccccc2)nnc1Sc1ccc(C(=O)O)cc1[N+](=O)[O-]` [CBK265038], 99.6%.
As for `Cc1cc(C)n(-c2ccc3nnc(CCC(=O)Nc4nccs4)n3n2)n1` [CBK307617], the viability at 28.5 h, 10 µM is 96.8%.
With `CCN1C(=O)c2cccc3c(S(=O)(=O)Nc4cccc(C(=O)O)c4)ccc1c23` [CBK299838] the figure was 97.5%.
To `Cc1nc(C(Cc2ccsc2)NC(=O)c2ccnn2C)sc1C` (stereo not drawn) [CBK284778] belongs 87.6%.
Regarding `CN(C)CCN(C)c1cncc(-c2ccc3c(c2)OCO3)n1` [CBK065897], the viability at 28.5 h, 10 µM stood at 101%.
As to `O=C(CN1CCC(c2ccncc2)CC1)N1CCCCC1` [CBK283504], the viability at 28.5 h, 10 µM worked out at 102%.
Take `CN1CCCN(c2cncc(-c3cccs3)n2)CC1` [CBK065542]: the viability at 28.5 h, 10 µM is 101%.
For `Clc1ccc(CN2CCCN(c3nccc(OCC4COc5ccccc5O4)n3)CC2)cc1Cl` (stereo not drawn) [CBK083967], the viability at 28.5 h, 10 µM came out at 97.3%.
